Results from ChEMBL document CHEMBL2086337, “Inhibition of monoamine oxidase by 8-phenoxymethylcaffeine derivatives” (Bioorg Med Chem, 2012).

Columns and labels:
[1] = target: T1, Amine oxidase [flavin-containing] A (Homo sapiens, UniProt P21397); test: Inhibition of human recombinant MAO-A expressed in baculovirus infected insect cells using kynuramine as substrate after 20 mins by horseradish peroxidase-coupled assay
T1 sequence (P21397 whole entry): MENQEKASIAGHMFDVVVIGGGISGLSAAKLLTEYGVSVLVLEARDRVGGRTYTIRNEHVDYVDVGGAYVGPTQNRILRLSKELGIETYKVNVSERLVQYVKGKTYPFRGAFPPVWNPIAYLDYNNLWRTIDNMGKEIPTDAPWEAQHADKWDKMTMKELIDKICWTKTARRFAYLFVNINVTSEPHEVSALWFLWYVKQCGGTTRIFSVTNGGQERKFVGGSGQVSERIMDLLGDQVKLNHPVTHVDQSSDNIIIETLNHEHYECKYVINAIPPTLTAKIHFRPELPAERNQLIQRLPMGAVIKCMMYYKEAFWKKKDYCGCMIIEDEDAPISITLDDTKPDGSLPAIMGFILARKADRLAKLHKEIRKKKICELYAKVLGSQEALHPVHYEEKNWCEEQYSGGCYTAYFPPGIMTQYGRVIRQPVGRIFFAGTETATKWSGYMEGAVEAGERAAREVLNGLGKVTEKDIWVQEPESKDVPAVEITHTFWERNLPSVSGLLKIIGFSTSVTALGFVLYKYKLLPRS

[2] = target: T2, Amine oxidase [flavin-containing] B (Homo sapiens, UniProt P27338); test: Inhibition of human recombinant MAO-B expressed in baculovirus infected insect cells using kynuramine as substrate after 20 mins by horseradish peroxidase-coupled assay
T2 sequence (P27338 whole entry): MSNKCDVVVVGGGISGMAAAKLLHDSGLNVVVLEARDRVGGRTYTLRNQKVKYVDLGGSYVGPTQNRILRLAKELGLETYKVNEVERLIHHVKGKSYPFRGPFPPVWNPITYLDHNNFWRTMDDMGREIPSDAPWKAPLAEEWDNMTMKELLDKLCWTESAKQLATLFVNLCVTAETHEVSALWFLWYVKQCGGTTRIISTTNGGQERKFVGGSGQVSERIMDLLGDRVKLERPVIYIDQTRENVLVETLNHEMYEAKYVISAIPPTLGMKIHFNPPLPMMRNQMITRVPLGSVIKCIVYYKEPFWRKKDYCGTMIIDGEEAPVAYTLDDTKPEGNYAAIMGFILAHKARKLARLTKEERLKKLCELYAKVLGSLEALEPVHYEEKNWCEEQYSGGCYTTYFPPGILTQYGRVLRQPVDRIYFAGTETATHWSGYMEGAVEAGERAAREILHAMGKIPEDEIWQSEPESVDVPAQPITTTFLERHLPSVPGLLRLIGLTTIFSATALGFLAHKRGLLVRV

Homo sapiens = species on record: Homo sapiens; test: Selectivity index, ratio of IC50 for human recombinant MAO-A to IC50 for human recombinant MAO-B
[3] = target: T1, Amine oxidase [flavin-containing] A; test: Inhibition of human recombinant MAO-A expressed in baculovirus infected insect cells using kynuramine as substrate after 20 mins by fluorescence spectrophotometry
[4] = target: T2, Amine oxidase [flavin-containing] B; test: Inhibition of human recombinant MAO-B expressed in baculovirus infected insect cells using kynuramine as substrate after 20 mins by fluorescence spectrophotometry
[5] = target: T2, Amine oxidase [flavin-containing] B; test: Reversible inhibition of human recombinant MAO-B expressed in baculovirus infected insect cells using kynuramine as substrate at 0.3 uM incubated up to 60 mins prior to substrate addition measured after 15 mins by fluorescence spectrophotometry; conditions: 0.25 h
[6] = target: T1, Amine oxidase [flavin-containing] A; test: Reversible inhibition of human recombinant MAO-A expressed in baculovirus infected insect cells using kynuramine as substrate at 0.3 uM incubated up to 60 mins prior to substrate addition measured after 15 mins by fluorescence spectrophotometry; conditions: 0.25 h
[7] = target: T2, Amine oxidase [flavin-containing] B; test: Competitive inhibition of human recombinant MAO-B expressed in baculovirus infected insect cells using kynuramine as substrate by Lineweaver-Burk plot analysis
[8] = target: T2, Amine oxidase [flavin-containing] B; test: Reversible inhibition of human recombinant MAO-B expressed in baculovirus infected insect cells using kynuramine as substrate at 9.7 uM incubated up to 60 mins prior to substrate addition measured after 15 mins by fluorescence spectrophotometry; conditions: 0.25 h
[9] = target: T1, Amine oxidase [flavin-containing] A; test: Reversible inhibition of human recombinant MAO-A expressed in baculovirus infected insect cells using kynuramine as substrate at 9.7 uM incubated up to 60 mins prior to substrate addition measured after 15 mins by fluorescence spectrophotometry; conditions: 0.25 h

In the case of `COc1cccc(OCc2nc3c(c(=O)n(C)c(=O)n3C)n2C)c1`, the IC50 [1] is reported as “Not Active” and the IC50 [2] is reported as 1960 nM.
Work on `Cn1c(=O)c2c(nc(CCSc3ccccc3)n2C)n(C)c1=O` yielded a Ratio IC50 (Homo sapiens) of 1.3, an IC50 ([1]; read-out: IC50) of 139 µM and an IC50 [2] of 108000 nM.
`Cn1c(=O)c2c(nc(CCSc3ccc(Cl)cc3)n2C)n(C)c1=O` was tested, and the Ratio IC50 (Homo sapiens) was 18, the IC50 ([1]; read-out: IC50) was 142 µM and the IC50 [2] was 7790 nM.
`Cn1c(=O)c2c(nc(CSc3ccc(Br)cc3)n2C)n(C)c1=O` was tested, and the IC50 [3] was 20.8 µM, the IC50 [4] was 4.05 µM and the Ratio IC50 (Homo sapiens) was 5.
For `Cn1c(=O)c2c(nc(CCSc3cccc(Cl)c3)n2C)n(C)c1=O`, the IC50 [1] was “Not Active” and the IC50 [2] was 5670 nM.
In the case of `Cn1c(=O)c2c(nc(COc3cccc(Br)c3)n2C)n(C)c1=O`, the Ratio IC50 (Homo sapiens) is reported as 230, the IC50 ([1]; read-out: IC50) is reported as 34 µM and the “inhibition (INH)” value [5] is reported as “Active”. For the same compound, the IC50 [2] was 148 nM, the “inhibition (INH)” value [6] was “Active” and the “inhibition (INH)” value [7] was “Active”.
For `Cn1c(=O)c2c(nc(COc3cccc(Cl)c3)n2C)n(C)c1=O`, the IC50 [1] was “Not Active” and the IC50 [2] was 334 nM.
`Cn1c(=O)c2c(nc(COc3ccc(Br)cc3)n2C)n(C)c1=O` gave a Ratio IC50 (Homo sapiens) of 57, an IC50 ([1]; read-out: IC50) of 10.7 µM and an IC50 [2] of 189 nM.
Work on `Cc1cccc(OCc2nc3c(c(=O)n(C)c(=O)n3C)n2C)c1` yielded a Ratio IC50 (Homo sapiens) of 15, an IC50 ([1]; read-out: IC50) of 18.8 µM and an IC50 [2] of 1230 nM.
Work on `Cn1c(=O)c2c(nc(CSc3cccc(Cl)c3)n2C)n(C)c1=O` yielded an IC50 [3] of 19.4 µM, an IC50 [4] of 6.12 µM and a Ratio IC50 (Homo sapiens) of 3.
`Cn1c(=O)c2c(nc(COc3cccc(C(F)(F)F)c3)n2C)n(C)c1=O` was tested, and the Ratio IC50 (Homo sapiens) was 7, the “inhibition (INH)” value [8] was “Active” and the IC50 ([1]; read-out: IC50) was 4.59 µM. The IC50 [2] was 641 nM and the “inhibition (INH)” value [9] was “Active”.
For `Cn1c(=O)c2c(nc(CSc3ccc(Cl)cc3)n2C)n(C)c1=O`, the IC50 [3] was 31.6 µM, the IC50 [4] was 6.91 µM and the Ratio IC50 (Homo sapiens) was 5.
For `Cn1c(=O)c2c(nc(CSc3cccc(Br)c3)n2C)n(C)c1=O`, the IC50 [3] was 23.8 µM, the IC50 [4] was 4.9 µM and the Ratio IC50 (Homo sapiens) was 5.
`Cn1c(=O)c2c(nc(CCSc3cccc(Br)c3)n2C)n(C)c1=O` showed a Ratio IC50 (Homo sapiens) of 6, an IC50 ([1]; read-out: IC50) of 372 µM and an IC50 [2] of 64100 nM.
In the case of `Cn1c(=O)c2c(nc(COc3ccc(Cl)cc3)n2C)n(C)c1=O`, the Ratio IC50 (Homo sapiens) is reported as 82, the IC50 ([1]; read-out: IC50) is reported as 20.4 µM and the IC50 [2] is reported as 250 nM.
`CCOc1cccc(SCc2nc3c(c(=O)n(C)c(=O)n3C)n2C)c1` showed an IC50 [3] of 44.7 µM, an IC50 [4] of 18.4 µM and a Ratio IC50 (Homo sapiens) of 2.
Compound `Cc1cccc(SCc2nc3c(c(=O)n(C)c(=O)n3C)n2C)c1` has an IC50 [3] of 51.8 µM, an IC50 [4] of 17.9 µM and a Ratio IC50 (Homo sapiens) of 3.
In the case of `Cn1c(=O)c2c(nc(COc3cccc(F)c3)n2C)n(C)c1=O`, the Ratio IC50 (Homo sapiens) is reported as 8, the IC50 ([1]; read-out: IC50) is reported as 13.2 µM and the IC50 [2] is reported as 1610 nM.
`Cn1c(=O)c2c(nc(COc3ccc(F)cc3)n2C)n(C)c1=O` showed a Ratio IC50 (Homo sapiens) of 10, an IC50 ([1]; read-out: IC50) of 8.22 µM and an IC50 [2] of 825 nM.
For `Cn1c(=O)c2c(nc(CCSc3ccc(Br)cc3)n2C)n(C)c1=O`, the Ratio IC50 (Homo sapiens) was 0.9, the IC50 ([1]; read-out: IC50) was 117 µM and the IC50 [2] was 124000 nM.
Work on `Cn1c(=O)c2c(nc(COc3ccccc3)n2C)n(C)c1=O` yielded a Ratio IC50 (Homo sapiens) of 4, an IC50 ([1]; read-out: IC50) of 21.1 µM and an IC50 [2] of 5780 nM.
`Cn1c(=O)c2c(nc(CSc3cccc(F)c3)n2C)n(C)c1=O` was tested, and the IC50 [3] was 50.1 µM, the IC50 [4] was 22.3 µM and the Ratio IC50 (Homo sapiens) was 2.
Work on `COc1cccc(SCc2nc3c(c(=O)n(C)c(=O)n3C)n2C)c1` yielded an IC50 [3] of 41.3 µM, an IC50 [4] of 8.42 µM and a Ratio IC50 (Homo sapiens) of 5.
`Cn1c(=O)c2c(nc(CSc3ccccc3)n2C)n(C)c1=O` was tested, and the IC50 [3] was 66.2 µM, the IC50 [4] was 23.4 µM and the Ratio IC50 (Homo sapiens) was 3.
